Measured values published in article PMC4047118, “BM-1197: A Novel and Specific Bcl-2/Bcl-xL Inhibitor Inducing Complete and Long-Lasting Tumor Regression In Vivo” (PLoS ONE, 2014).
Like-named read-outs stand apart in the source and are kept apart here.

How the values were obtained:
H82 = test: SCLC cell growth inhibition (WST-8), H82; format: cell-based; conditions: Homo sapiens, NCI-H82; 96-h incubation, means ± SD (n = 3–6)
Experimental: (§1) All the SCLC cell lines were purchased from American Type Culture Collection (Manassas, VA) and cultured as recommended. All these cell lines were passaged fewer than 6 months after purchase. MCL1 knockout (MCL1^−/−) MEF cells were kindly provided by Dr. David Huang (The Walter and Eliza Hall Institute of Medical Research, Melbourne, Australia). Cell growth inhibition was evaluated by means of a WST-8 assay (Dojindo, Rockville, MD) as described previously. Mitochondrial membrane potential was determined by JC-1 staining using a JC-1 Mitochondrial Membrane Potential Assay kit (Cayman). Apoptosis analysis was performed using an Annexin V/propidium iodide (PI) apoptosis detection kit (Roche Applied Sciences, Indianapolis, IN).

H196 = test: SCLC cell growth inhibition (WST-8), H196; format: cell-based; conditions: Homo sapiens, NCI-H196; 96-h incubation, means ± SD (n = 3–6)
Experimental: as §1

H1963 xenograft tumors = test: H1963 subcutaneous xenograft model; format: in vivo, SCID mice
Experimental: (§2) Tumor sizes were measured 2–3 times per week. Tumor growth inhibition was calculated by using the formula: 100% (mean volume of controls - mean volume of treated)/mean volume of controls.
(§3) Figure 10 In vivo antitumor activity of BM-1197. […] Data shown are mean ± SEM for 6–8 mice. (E & F) SCID mice bearing H146 or H1963 cells were treated with 10 mg/kg of BM-1197 IV for the indicated times. Tumor lysates were analyzed by immunoblotting.

H146 xenograft tumors = test: H146 subcutaneous xenograft model; format: in vivo, SCID mice
Experimental: as §2, §3

Bcl-2 = biological target: T1, Bcl-2 (Mus musculus, UniProt P10417); test: cellular thermal shift assay (CETSA), Bcl-2; format: cell-based; conditions: 1 µM, 1 h, MEF MCL1−/− cells
T1 construct: endogenous in cells; host or cells: MEF MCL1-/- cells
T1 sequence (P10417 whole entry): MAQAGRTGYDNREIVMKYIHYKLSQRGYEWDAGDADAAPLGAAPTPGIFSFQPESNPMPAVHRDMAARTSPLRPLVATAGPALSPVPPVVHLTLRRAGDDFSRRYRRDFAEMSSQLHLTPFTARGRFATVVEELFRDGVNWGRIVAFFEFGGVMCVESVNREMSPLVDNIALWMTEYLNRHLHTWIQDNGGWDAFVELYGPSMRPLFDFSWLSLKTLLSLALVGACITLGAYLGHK
Experimental: Drug-target engagement was assessed using CETSA as described by Molina et al.. Briefly, cells were treated with drugs for 1 h, then harvested, washed with PBS, and resuspended in PBS. The resuspended cells were freeze-thawed 4 times. The soluble fraction (lysate) was separated from cell debris by centrifugation at 20000×g for 20 minutes at 4°C and then analyzed by Western blots.
Drug-treated cells were heated at gradient temperature from 42°C to 62°C for 3 min then freeze-thawed 4 times. The soluble fractions of the lysed cells were analyzed by immunoblotting. (B) MEF MCL1^− ^/− cells were treated with drugs at the indicated doses for 1 h before collected for CETSA.

H146 = test: SCLC cell growth inhibition (WST-8), H146; format: cell-based; conditions: Homo sapiens
Experimental: as §1
Data are representative of two independent experiments.

[1] = system: MCL1-wild-type (WT) MEF cells; test: cell growth inhibition, WST assay, wild-type MEF; format: cell-based; conditions: Mus musculus, 72 h, 3 days
Experimental: as §1
(B) MCL1^−/− cells were treated with 100 nM of BM-1197 for 16 h and stained with Annexin V/PI for flow cytometry. […] They are given in the order upper left, upper right, lower left, lower right.

[2] = system: panel of 12 SCLC cell lines; test: growth inhibition in a panel of 12 SCLC cell lines (summary); format: cell-based, human; conditions: for IC50: Homo sapiens
Experimental: as §1

DMS53 = test: SCLC cell growth inhibition (WST-8), DMS53; format: cell-based; conditions: Homo sapiens, DMS-53; 96-h incubation, means ± SD (n = 3–6)
Experimental: as §1

[3] = single dose 10 mg/kg IV, as early as 3 h, persisting at least 24 hr
[4] = IV daily 10 mg/kg, 5 days per week for 2 weeks, 8 mice

**Q.** `Cc1c(S(C)(=O)=O)c(-c2cc(F)cc(N3CCN(c4ccc(NS(=O)(=O)c5ccc(N[C@H](CCN6CCC(O)CC6)CSc6ccccc6)c(S(=O)(=O)C(F)(F)F)c5)cc4)CC3)c2)c(-c2ccc(Cl)cc2)n1C(C)C` [BM-1197] was tested. Which IC50 (H82) did it give?
**A.** The IC50 was 698 ± 354 nM.

**Q.** What about the IC50 (H196) of the same compound?
**A.** The IC50 was over 2000 nM.

**Q.** And the “decrease of mean tumor volume seven days after initiation of treatment” value (H1963 xenograft tumors; 10 mg/kg daily IV dosing)?
**A.** The value was over 90%.

**Q.** What about the “mice with tumor regrown 40 days after the last dose” value (H1963 xenograft tumors; 10 mg/kg daily IV dosing) of the same compound?
**A.** Its value is 1 of 6.

**Q.** What about the “mice with complete tumor regression” value (H1963 xenograft tumors; 10 mg/kg daily IV dosing (5 days per week), 6 mice) of the same compound?
**A.** Its value is 6 mice.

**Q.** And the “mice tumor free for 61 days after the last dose” value (H1963 xenograft tumors; 10 mg/kg daily IV dosing, 6 mice)?
**A.** Its value is 5 mice.

**Q.** And the weight loss (H1963 xenograft tumors; both daily and weekly dose-schedules)?
**A.** Its weight loss is under 10%.

**Q.** What about the “mice with palpable tumor on day 59” value (H1963 xenograft tumors; daily dosing at 10 mg/kg) of the same compound?
**A.** Its value is “one of six mice”.

**Q.** What about the “apoptosis biomarkers in H1963 tumors” value (H1963 xenograft tumors; [3]) of the same compound?
**A.** The value was “rapid and robust caspase-3 activation and PARP cleavage”.

**Q.** What about the “duration of complete tumor regression in 5 out of 6 mice” value (H1963 xenograft tumors; weekly dosing (15 mg/kg)) of the same compound?
**A.** Its value is 38 days.

**Q.** What about the “duration of complete tumor regression in all mice” value (H1963 xenograft tumors; weekly dosing (15 mg/kg)) of the same compound?
**A.** Its value is 17 days.

**Q.** What about the “reduction of mean tumor volume after a single dose” value (H1963 xenograft tumors; weekly dosing (15 mg/kg)) of the same compound?
**A.** The value was 66%.

**Q.** What about the “tumor response after two doses” value (H1963 xenograft tumors; weekly dosing (15 mg/kg)) of the same compound?
**A.** The value was “complete tumor regression”.

**Q.** And the “mice with re-occurring tumor on day 59” value (H1963 xenograft tumors; weekly dosing at 15 mg/kg)?
**A.** Its value is “all mice”.

**Q.** What about the “mice tumor free 50 days after the end of the weekly treatment” value (H146 xenograft tumors; 15 mg/kg weekly IV) of the same compound?
**A.** Its value is 5 of 8.

**Q.** What about the “mice with complete tumor regression after eight weekly doses” value (H146 xenograft tumors; 15 mg/kg weekly IV) of the same compound?
**A.** The value was 7 of 8.

**Q.** What about the “mice with complete tumor regression after five weekly doses” value (H146 xenograft tumors; 15 mg/kg weekly IV) of the same compound?
**A.** The value was 4 of 8.

**Q.** And the “decrease of mean tumor volume after 7 doses” value (H146 xenograft tumors; IV daily 10 mg/kg)?
**A.** The value was 85%.

**Q.** And the “decrease of mean tumor volume after two doses” value (H146 xenograft tumors; IV daily 10 mg/kg)?
**A.** Its value is 40%.

**Q.** What about the “mice tumor free 60 days after the end of the treatment” value (H146 xenograft tumors; [4]) of the same compound?
**A.** Its value is 5 mice.

**Q.** And the “mice tumor free for at least 32 days after the end of the treatment” value (H146 xenograft tumors; [4])?
**A.** The value was 8 mice.

**Q.** What about the “mice with rapid and complete tumor regression” value (H146 xenograft tumors; [4]) of the same compound?
**A.** Its value is 8 mice.

**Q.** And the “mean tumor volume after two doses” value (H146 xenograft tumors; IV daily 10 mg/kg, from 114 mm^3)?
**A.** Its value is 69 mm^3.

**Q.** And the “weight loss compared to control group” value (H146 xenograft tumors; all dose-schedules in H146 model, no other signs of toxicity)?
**A.** Its value is “no statistically significant weight loss”.

**Q.** And the “reduction of mean tumor volume on day 7” value (H146 xenograft tumors; single 10 mg/kg dosing, weekly IV schedule)?
**A.** The value was 32%.

**Q.** What about the “tumor regression on day 7” value (H146 xenograft tumors; single 15 mg/kg dosing, weekly IV schedule) of the same compound?
**A.** Its value is 66%.

**Q.** And the “apoptosis biomarkers in H146 tumors” value (H146 xenograft tumors; [3])?
**A.** Its value is “rapid and robust caspase-3 activation and PARP cleavage”.

**Q.** What about the “thermal stability of Bcl-2 protein” value (Bcl-2) of the same compound?
**A.** Its value is “enhanced”.

**Q.** And the IC50 (H146; NCI-H146, 96 h, read-out: IC50 (1% FBS), H146, 4 days, WST assay, 1% FBS)?
**A.** The IC50 was 1.9 nM.

**Q.** And the IC50 (H146; NCI-H146, 96 h, read-out: IC50 (1% FBS+3% HSA), H146, 4 days, WST assay, 1% FBS+3% HSA)?
**A.** The IC50 was 1.9 nM.

**Q.** What about the IC50 (H146; NCI-H146, 96 h, read-out: IC50 (10% FBS), H146, 4 days, WST assay, 10% FBS) of the same compound?
**A.** Its IC50 is 2.6 nM.

**Q.** What about the IC50 (H146; NCI-H146, 96 h, read-out: IC50 (50% FBS), H146, 4 days, WST assay, 50% FBS) of the same compound?
**A.** The IC50 was 4.8 nM.

**Q.** And the IC50 (H146; NCI-H146, 96-h incubation, means ± SD (n = 3–6), read-out: IC50 cell growth, H146)?
**A.** The IC50 was 3 ± 2 nM.

**Q.** And the IC50 [1]?
**A.** Its IC50 is over 2000 nM.

**Q.** And the “fold more potent than ABT-263” value ([2]; 4 cell lines most sensitive to BM-1197)?
**A.** Its value is 5-26 fold.

**Q.** What about the IC50 ([2]; 2 of 12 SCLC cell lines, read-out: IC50 values in the 2 cell lines with weak activity) of the same compound?
**A.** Its IC50 is over 2000 nM.

**Q.** And the IC50 ([2]; 3 of 12 SCLC cell lines, read-out: IC50 values in the 3 cell lines with moderate activity)?
**A.** The IC50 was about 600 nM.

**Q.** What about the IC50 ([2]; 7 of 12 SCLC cell lines, read-out: IC50 values in the 7 cell lines with potent activity) of the same compound?
**A.** The IC50 was 3 to 82 nM.

**Q.** What about the IC50 (DMS53) of the same compound?
**A.** The IC50 was 538 ± 254 nM.
